According to paper PMC4745926, “Absorption, Metabolism, and Excretion by Freely Moving Rats of 3,4-DHPEA-EDA and Related Polyphenols from Olive Fruits (Olea europaea)” (Journal of Nutrition and Metabolism, 2016):
Values joined by “and” are separate entries in the source; they are usually repeats but may differ in a detail not shown here. Equal values may be shown once. “Also recorded” adds a separate entry of the source.

Assays:
[1] = Urinary excretion after oral administration; assay type: in vivo, Wistar ST rats
Protocol: (§1) SPF Wistar ST rats (6 weeks of age, male, 180 ± 20 g of body weight) were purchased from Japan SLC Inc. (Hamamatsu, Japan). The rats were housed in an air-conditioned room at 22 ± 2°C under cycles of 12 hours dark and 12 hours light and given free access to a commercial diet and water for a week. The rats were then fasted for over 16 hours before the experiments. The present study was approved by the Animal Care and Use Committee at Kagawa University, and the rat treatment conformed to the Rules of Animal Experiments at Kagawa University. 3,4-[…] (300 mg/kg body weight; 936.51 μmol/kg) dissolved in 50% polyethylene glycol aqueous solution was administered orally via a stomach tube to the portal vein cannulated rats. Blood samples (450 μL) were then collected using a heparinized syringe attached to the cannula before administration and 5, 15, 30, 60, 120, and 240 min after administration. Urine was also collected before administration and 0 to 2 h and 2 to 4 h after administration. For intravenous administration, 3,4-[…] (10 mg/kg; 31.22 μmol/kg) was injected into the jugular vein, and blood (450 μL) was collected using a heparinized syringe before administration and 5, 15, 30, 60, 120, and 240 min after administration via the jugular vein cannula. The blood (450 μL) collected was immediately cooled on ice and centrifuged at 15,000 rpm for 5 min at 4°C to obtain over 200 μL plasma. Urine was also collected before administration and 0 to 2 h and 2 to 4 h after administration. Bile was collected via the bile duct cannula before administration and 0 to 2 h and 2 to 4 h after intravenous administration. The collected plasma, urine, and bile were immediately stored in an ice box until further analyses. HT (oral administration: 100 mg/kg; 648.66 μmol/kg, intravenous administration: 10 mg/kg; 64.87 μmol/kg) and Ole (oral administration: 300 mg/kg; 555.02 μmol/kg, intravenous administration: 10 mg/kg; 18.50 μmol/kg) were investigated using the same method as described above. Metabolites were deconjugated by using β-glucuronidase (500 U) and sulfatase (50 U) in 50 μL 625 mM MOPS (pH 6.8), which was added to 200 μL of plasma, urine, or bile. The mixture was incubated for 45 min at 37°C and subjected to extraction using QuEChERS [33]. […] Shimadzu, Kyoto, Japan) equipped with a Shim-pack XR-ODS column (3.0 mm I.D. × 100 mm; Shimadzu, Kyoto, Japan) at 40°C with a mobile phase of 0.5% TFA-1% acetonitrile aqueous solution (A) and 0.5% TFA-75% acetonitrile aqueous solution (B). The elution conditions are described as follows: isocratic elution of 0% B was maintained for 4.0 min; linear gradient 0 to 4% B, 4.0-4.5 min; linear gradient 4.0-16.0% B, 4.5-16.0 min; linear gradient 16.0-100% B, 16.0-25.0 min; isocratic elution of 100% B, 25.0-26.0 min; and linear gradient 100 to 0% B, 26.0-26.1 min, with a flow rate of 0.5 mL/min. Injection volume was 50 μL. All eluted peaks were detected at 279 nm with a diode array detector (SPD-M20A; Shimadzu, Kyoto, Japan).

[2] = Biliary excretion after intravenous administration in bile duct-cannulated rats; assay type: in vivo, Wistar ST rats
Protocol: as §1, with “University. After fasting, the rats were cannulated with a polyethylene tube (PE-50; 0.58 mm I.D., 0.965 mm O.D.) into the jugular vein, portal vein, or bile duct under anesthesia with isoflurane inhalation using a WP-SAA01 (LMS Co., Ltd., Tokyo, Japan). A small hole was made in the vein or duct using pointed scissors and cannulated with the polyethylene tube. After inserting the tube, it was fixed at the edge of the vein or duct. The jugular vein and portal vein cannulas penetrated under the skin and were then tied at the back of the rats, and the bile duct cannula was tied at the abdomen of the rats. Bile duct-cannulated rats were then restrained in a Bollman cage (Natsume Seisakusho Co., Ltd., Tokyo, Japan). Before further experiments, the rats were allowed to recover from anesthesia.” for “University.”

[3] = after oral administration, within 240 min

| Compound | Detection of 3,4-DHPEA-EDA in urine ([1]; after oral administration) | HT in urine [1, 3] | HVA in urine [1, 3] | HVAOH in urine [1, 3] | total excretion ratio including metabolites (3,4-DHPEA-EDA : HT : Ole) ([1]; urine after oral administration, Ole = 1) | Total metabolites (including intact compound) excreted in the urine ([1]; within 240 min after oral administration) [%] | Detection of parent 3,4-DHPEA-EDA in bile [2] | HT in bile [2] | HVA in bile [2] | HVAOH in bile [2] | Ole in urine ([1]; after oral administration) | Ole in bile [2] |
| --- | --- | --- | --- | --- | --- | --- | --- | --- | --- | --- | --- | --- |
| CC=C(C=O)C(CC=O)CC(=O)OCCc1ccc(O)c(O)c1 (centres unmarked) [3,4-DHPEA-EDA, 3,4-dihydroxyphenylethyl elenolate dialdehydic form] | not observed; also recorded: not detected | 0.51 % of dose | 0.38 % of dose and 0.39 % of dose | not detected | 12.9 | 0.9 | not observed | 0.174 % of dose and 0.17 % of dose | 0.048 % of dose and 0.05 % of dose | 0.255 % of dose and 0.26 % of dose |  |  |
| OCCc1ccc(O)c(O)c1 [Hydroxytyrosol, 2-(3,4-dihydroxyphenyl) ethyl alcohol, reference compound] |  | 1.14 % of dose |  |  |  |  |  | 0.079 % of dose |  |  |  |  |
| C/C=C1/[C@H](O[C@@H]2O[C@H](CO)[C@@H](O)[C@H](O)[C@H]2O)OC=C(C(=O)OC)[C@H]1CC(=O)OCCc1ccc(O)c(O)c1 [Oleuropein, reference compound] |  |  |  |  |  |  |  |  |  |  | 0.07 % of dose | 3.22 % of dose |
